# Laboratory results reported in patent US4146718A, “Alkyl 5,6-dichloro-3,4-dihydro-2(1H)-iminoquinazoline-3-acetate hydrohalides” (Bristol-Myers Company, priority 1978, dated 1979).
# Counter-ions that a name gives are not always drawn. Like-named read-outs stand apart in the source and are kept apart here.
# Legend:
# [1] = test system: Rabbit - PRP (ADP- and collagen-induced platelet aggregation); test: Aggregometry - Rabbit - PRP, In Vitro; type: cell-based; settings: Oryctolagus cuniculus
# Source text: (§1) As stated above, the compound of Formula I is a known blood platelet antiaggregative agent. Table I compares the activities of the compound of Formula I and other known blood platelet antiaggregative agents in various antiaggregative and antithrombosis tests. Although the compounds of Formula III are primarily intended as intermediates in the preparation of the compound of Formula I, they themselves have blood platelet antiaggregative properties. For comparison purposes, one of the compounds of Formula III (R^1 = ethyl, X = bromo) is included in Table I. The tests referred to in Table I were conducted as set out in detail in J. S. Fleming, et al., Journal of Pharmacology and Experimental Therapeutics, 194, 435 (1975).
# (§2) Antiaggregative and Antithrombosis Tests in Various In Vitro, Ex Vivo
# (§3) Aggregometry - Rabbit - PRP
# (§4) (μg/ml) (mg/kp ip) Biolaser
# (§5) PRP = Platelet-rich plasma
# (§6) ADP = Adenosine diphosphate
# [2] = test system: Rabbit - PRP (ADP- and collagen-induced platelet aggregation); test: Aggregometry - Rabbit - PRP, Ex Vivo; type: in vivo; settings: Oryctolagus cuniculus, ip
# Source text: as §1, §2, §3, §4, §5, §6
# Biolaser Thrombosis = test: In Vivo Animal Model: Rabbit Biolaser Thrombosis; settings: Oryctolagus cuniculus, read-out: ED50, Rabbit Biolaser Thrombosis
# Electrical Thrombosis = test: In Vivo Animal Model: Dog Electrical Thrombosis; settings: Canis lupus familiaris, read-out: ED50, Dog Electrical Thrombosis
# Endotoxin Shock = test: In Vivo Animal Model: Rat Endotoxin Shock; settings: po
# Source text: as §1
# In Vivo Animal Models ED50's (mg/kg)
# [3] = ADP, read-out: In Vitro EC50, ADP
# [4] = Collagen, read-out: In Vitro EC50, Collagen
# [5] = ADP, read-out: Ex Vivo ED50, ADP
# [6] = Collagen, read-out: Ex Vivo ED50, Collagen
Compound,"EC50 [1, 3] [µg/mL]","EC50 [1, 4] [µg/mL]","ED50 [2, 5] [mg/kg]","ED50 [2, 6] [mg/kg]","ED50 (Biolaser Thrombosis; rabbit, po) [mg/kg]","ED50 (Electrical Thrombosis; dog, po) [mg/kg]",ED50 (Endotoxin Shock) [mg/kg],"ED50 (Biolaser Thrombosis; rabbit, iv) [mg/kg]",ED50 (Biolaser Thrombosis; iv) [mg/kg],ED50 (Electrical Thrombosis; po) [mg/kg],"ED50 (Electrical Thrombosis; dog, ip) [mg/kg]"
"O=C1CN2Cc3c(ccc(Cl)c3Cl)N=C2N1 [Compound I, 6,7-dichloro-1,5-dihydroimidazo[2,1-b]quinazolin-2(3H)-one]",0.3,0.08,1.25,1,2.5,1.5,25,,,,
O=C1C(CC[S+]([O-])c2ccccc2)C(=O)N(c2ccccc2)N1c1ccccc1 (centres unmarked) [Sulfinpyrazone],> 512,62,> 100,3,,> 100,> 128,> 60,,,
CC(=O)Oc1ccccc1C(=O)O [Aspirin],> 512,7,> 100,3,,,> 256,,> 60,50,
OCCN(CCO)c1nc(N2CCCCC2)c2nc(N(CCO)CCO)nc(N3CCCCC3)c2n1 [Dipyridamole],> 512,,> 100,> 100,,,> 256,> 60,,,> 35
"CCOC(=O)CN1Cc2c(ccc(Cl)c2Cl)NC1=N [Compound III, Ethyl 5,6-Dichloro-3,4-dihydro-2(1H)-iminoquinazoline-3-acetate Hydrobromide]",9,3.6,,,,,,,,,
